# Results: US7741488B2, “Tetrahydropyridothiophenes as antiproliferative agents for the treatment of cancer” (4SC AG, priority 2005, dated 2010)
# Columns and labels:
# [1] = system: RKO (RKOp27) human colon adenocarcinoma cells; assay: Alamar Blue cell viability assay, anti-proliferative/cytotoxic activity on proliferating (uninduced) RKO p27 cells; format: cell-based; details: RKOp27, 72 h, proliferating cells without inducer Ponasterone A
# Procedure: The anti-proliferative/cytotoxic activity of the compounds described herein, can be tested on subclones of RKO (RKOp27) human colon adenocarcinoma cells (Schmidt et al., Oncogene 19, 2423-2429; 2000) using the Alamar Blue cell viability assay (described in O'Brien et al. Eur J Biochem 267, 5421-5426, 2000). The compounds are dissolved as 20 mM solutions in dimethylsulfoxide (DMSO) and subsequently diluted in semi-logarithmic steps. DMSO dilutions are further diluted 1:100 into Dulbecco's modified Eagle's medium (DMEM) containing 10% fetal calf serum to a final concentration twice as much as the final concentration in the test. RKO subclones are seeded into 96 well flat bottom plates at a density of 4000 cells per well in a volume of 50 μl per well. 24 hours after seeding the 50 μl each of the compound dilutions in DMEM medium are added into each well of the 96 Well plate. Each compound dilution is tested as quadruplicates. Wells containing untreated control cells are filled with 50 μl DMEM medium containing 1% DMSO. The cells are then incubated with the substances for 72 hours at 37° C. in a humidified atmosphere containing 5% carbon dioxide. To determine the viability of the cells, 10 μl of an Alamar Blue solution (Biosource) are added and the fluorescence is measured at an extinction of 544 nm and an emission of 590 nm. For the calculation of the cell viability the emission value from untreated cells is set as 100% viability and the emission rates of treated cells are set in relation to the values of untreated cells. Viabilities are expressed as % values.
# The corresponding IC50 values of the compounds for anti-proliferative/cytotoxic activity are determined from the concentration-effect curves.
# Representative IC50 values for anti-proliferation/cytotoxicity determined in the mentioned assay follow from the following table A, in which the numbers of the compound correspond to the numbers of the examples.
# [2] = system: RKOp27 colon adenocarcinoma cells arrested by expression of ectopic p27Kip1; assay: Alamar Blue cell viability assay on RKO p27 cells arrested by Ponasterone A induced p27Kip1 (cell cycle specific mode of action); format: cell-based; details: Homo sapiens, 72 hours, cells arrested by p27Kip1 induced with 10 μM Ponasterone A
# Procedure: To determine the cell cycle specific mode of action, subclones of RKO colon adenocarcinoma cells (RKOp27 or RKOp21 as described by Schmidt et al. in Oncogene 19, 2423-2429; 2000) are seeded into 96 well flat bottom plates at a density of 16000 cells per well in a volume of 50 μl per well in DMEM growth medium with 10% FCS containing 10 μM Ponasterone A. 24 hours after seeding the 50 μl each of the compound dilutions in DMEM medium are added into each well of the 96 Well plate. Each compound dilution is tested as quadruplicates. Wells containing untreated control cells are filled with 50 μl DMEM medium containing 1% DMSO. The cells are then incubated with the substances for 72 hours at 37° C. in a humidified atmosphere containing 5% carbon dioxide. To determine the viability of the cells, 10 μl of an Alamar Blue solution (Biosource) are added and the fluorescence was measured at an extinction of 544 nm and an emission of 590 nm. For the calculation of the cell viability the emission value from untreated cells is set as 100% viability and the emission rates of treated cells are set in relation to the values of untreated cells. Viabilities are expressed as % values. Viability is compared of proliferating cells grown in the absence of the inducer Ponasterone A, versus viability of cells arrested by the expression of ectopic p27Kip1 induced by Ponasterone A.
IC50 [2] [µM],SMILES,IC50 [1] [nM]
> 100,"CCOC(=O)N1CCc2c(sc(NC(=O)CC(C)c3ccccc3OC)c2C#N)C1 (racemic) [Example 49, 3-Cyano-2-[(RS)-3-(2-methoxy-phenyl)-butanoylamino]-4,7-dihydro-5H-thieno[2,3-c]pyridine-6-carboxylic acid ethyl ester]",≤ 300
> 100,"CCOC(=O)N1CCc2c(sc(NC(=O)CCc3ccc(OC)cc3)c2C#N)C1 [Example 1, 3-Cyano-2-[3-(4-methoxy-phenyl)-propanoylamino]-4,7-dihydro-5H-thieno[2,3-c]pyridine-6-carboxylic acid ethyl ester]",≤ 300
> 100,"CCOC(=O)N1CCc2c(sc(NC(=O)CCc3cccc(OC)c3)c2C#N)C1 [Example 2, 3-Cyano-2-[3-(3-methoxy-phenyl)-propanoylamino]-4,7-dihydro-5H-thieno[2,3-c]pyridine-6-carboxylic acid ethyl ester]",≤ 300
> 100,"CCOC(=O)N1CCc2c(sc(NC(=O)CCc3ccccc3OC)c2C#N)C1 [Example 3, 3-Cyano-2-[3-(2-methoxy-phenyl)-propanoylamino]-4,7-dihydro-5H-thieno[2,3-c]pyridine-6-carboxylic acid ethyl ester]",300 to 2000
> 100,"CCOC(=O)N1CCc2c(sc(NC(=O)CCc3cccc([N+](=O)[O-])c3)c2C#N)C1 [Example 4, 3-Cyano-2-[3-(3-nitro-phenyl)-propanoylamino]-4,7-dihydro-5H-thieno[2,3-c]pyridine-6-carboxylic acid ethyl ester]",≤ 300
> 100,"CCOC(=O)N1CCc2c(sc(NC(=O)CCc3ccc(OCC)cc3)c2C#N)C1 [Example 5, 3-Cyano-2-[3-(4-ethoxy-phenyl)-propanoylamino]-4,7-dihydro-5H-thieno[2,3-c]pyridine-6-carboxylic acid ethyl ester]",≤ 300
> 100,"CCOC(=O)N1CCc2c(sc(NC(=O)CCc3cccc(OC)c3OC)c2C#N)C1 [Example 6, 3-Cyano-2-[3-(2,3-dimethoxy-phenyl)-propanoylamino]-4,7-dihydro-5H-thieno[2,3-c]pyridine-6-carboxylic acid ethyl ester]",300 to 2000
> 100,"CCOC(=O)N1CCc2c(sc(NC(=O)CCc3cc(OC)ccc3OC)c2C#N)C1 [Example 7, 3-Cyano-2-[3-(2,5-dimethoxy-phenyl)-propanoylamino]-4,7-dihydro-5H-thieno[2,3-c]pyridine-6-carboxylic acid ethyl ester]",300 to 2000
> 100,"CCOC(=O)N1CCc2c(sc(NC(=O)CCc3cccc(OCC)c3)c2C#N)C1 [Example 8, 3-Cyano-2-[3-(3-ethoxy-phenyl)-propanoylamino]-4,7-dihydro-5H-thieno[2,3-c]pyridine-6-carboxylic acid ethyl ester]",300 to 2000
> 100,"CCOc1ccccc1CCC(=O)Nc1sc2c(c1C#N)CCN(C(=O)OC(C)(C)C)C2 [Example 9, 3-Cyano-2-[3-(2-ethoxy-phenyl)-propanoylamino]-4,7-dihydro-5H-thieno[2,3-c]pyridine-6-carboxylic acid tert-butyl ester]",≤ 300
> 100,"COc1ccccc1CCC(=O)Nc1sc2c(c1C#N)CCN(C(=O)OC(C)(C)C)C2 [Example 10, 3-Cyano-2-[3-(2-methoxy-phenyl)-propanoylamino]-4,7-dihydro-5H-thieno[2,3-c]pyridine-6-carboxylic acid tert-butyl ester]",≤ 300
> 100,"COc1cccc(CCC(=O)Nc2sc3c(c2C#N)CCN(C(=O)OC(C)(C)C)C3)c1 [Example 11, 3-Cyano-2-[3-(3-methoxy-phenyl)-propanoylamino]-4,7-dihydro-5H-thieno[2,3-c]pyridine-6-carboxylic acid tert-butyl ester]",≤ 300
> 100,"CCOC(=O)N1CCc2c(sc(NC(=O)CCc3ccccc3OC(F)F)c2C#N)C1 [Example 12, 3-Cyano-2-{3-[2-(1,1-difluoro-methoxy)-phenyl]-propanoylamino}-4,7-dihydro-5H-thieno[2,3-c]pyridine-6-carboxylic acid ethyl ester]",≤ 300
> 100,"CCOC(=O)N1CCc2c(sc(NC(=O)CCc3cc(Br)cc(OC)c3OC)c2C#N)C1 [Example 14, 2-[3-(5-Bromo-2,3-dimethoxy-phenyl)-propanoylamino]-3-cyano-4,7-dihydro-5H-thieno[2,3-c]pyridine-6-carboxylic acid ethyl ester]",≤ 300
> 100,"CCOC(=O)N1CCc2c(sc(NC(=O)CCc3cc(Br)ccc3OC)c2C#N)C1 [Example 15, 2-[3-(5-Bromo-2-methoxy-phenyl)-propanoylamino]-3-cyano-4,7-dihydro-5H-thieno[2,3-c]pyridine-6-carboxylic acid ethyl ester]",≤ 300
> 100,"CCOC(=O)N1CCc2c(sc(NC(=O)CCc3cccc(OCC)c3OCC)c2C#N)C1 [Example 16, 3-Cyano-2-[3-(2,3-diethoxy-phenyl)-propanoylamino]-4,7-dihydro-5H-thieno[2,3-c]pyridine-6-carboxylic acid ethyl ester]",300 to 2000
> 100,"CCOC(=O)N1CCc2c(sc(NC(=O)CCc3cc(C)ccc3OC)c2C#N)C1 [Example 17, 3-Cyano-2-[3-(2-methoxy-5-methyl-phenyl)-propanoylamino]-4,7-dihydro-5H-thieno[2,3-c]pyridine-6-carboxylic acid ethyl ester]",≤ 300
> 100,"CCOC(=O)N1CCc2c(sc(NC(=O)CCc3c(OC)ccc4c3OC(F)(F)C(F)(F)O4)c2C#N)C1 [Example 18, 3-Cyano-2-[3-(2,2,3,3-tetrafluoro-6-methoxy-2,3-dihydro-benzo[1,4]dioxin-5-yl)-propanoylamino]-4,7-dihydro-5H-thieno[2,3-c]pyridine-6-carboxylic acid ethyl ester]",300 to 2000
> 100,"CCOC(=O)N1CCc2c(sc(NC(=O)CCc3ccccc3OCC)c2C#N)C1 [Example 19, 3-Cyano-2-[3-(2-ethoxyphenyl)-propanoylamino]-4,7-dihydro-5H-thieno[2,3-c]-pyridine-6-carboxylic acid ethyl ester]",≤ 300
> 100,"CCOc1ccccc1CCC(=O)Nc1sc2c(c1C#N)CCN(C(=O)OCC1COC(C)(C)O1)C2 (stereo not drawn) [Example 20, 3-Cyano-2-[3-(2-ethoxy-phenyl)-propanoylamino]-4,7-dihydro-5H-thieno[2,3-c]pyridine-6-carboxylic acid 2,2-dimethyl-[1,3]dioxolan-4-ylmethyl ester]",≤ 300
> 100,"CCOc1ccccc1CCC(=O)Nc1sc2c(c1C#N)CCN(C(=O)OCCOCc1ccccc1)C2 [Example 21, 3-Cyano-2-[3-(2-ethoxy-phenyl)-propanoylamino]-4,7-dihydro-5H-thieno[2,3-c]pyridine-6-carboxylic acid 2-benzyloxy-ethyl ester]",300 to 2000
> 100,"COc1ccccc1CCC(=O)Nc1sc2c(c1C#N)CCN(C(=O)OCCOCc1ccccc1)C2 [Example 24, 3-Cyano-2-[3-(2-methoxy-phenyl)-propanoylamino]-4,7-dihydro-5H-thieno[2,3-c]pyridine-6-carboxylic acid 2-benzyloxy-ethyl ester]",300 to 2000
> 100,"COc1ccccc1CCC(=O)Nc1sc2c(c1C#N)CCN(C(=O)OCCc1ccccn1)C2 [Example 25, 3-Cyano-2-[3-(2-methoxy-phenyl)-propanoylamino]-4,7-dihydro-5H-thieno[2,3-c]pyridine-6-carboxylic acid 2-pyridin-2-yl-ethyl ester]",≤ 300
≥ 40,"COc1ccccc1CCC(=O)Nc1sc2c(c1C#N)CCN(C(=O)OCc1ccccn1)C2 [Example 26, 3-Cyano-2-[3-(2-methoxy-phenyl)-propanoylamino]-4,7-dihydro-5H-thieno[2,3-c]pyridine-6-carboxylic acid pyridin-2-ylmethyl ester]",≤ 300
